Source: US9624491B2, “Methods and compositions for the detection and treatment of cancer involving miRNAs and miRNA inhibitors and targets” (Memorial Sloan Kettering Cancer Center, priority 2010, dated 2017)

B1: TTTGGCACTGGTAGAACTCCCAATCTTCCTGTCAGAGTGTGAGTTCTACCATTGCCAAATTTTT (nucleic acid)
antisense: TTTGGCACTGGTAGAACTCCCAATCTTCCTGTCAGAGTGTGAGTTCTACCATTGCCAAATTTTT
modifications: listed as DNA, chemistry not fully specified
notes: control antagomir to the randomly chosen miR-182

Assays:
FL5-12 lymphocytes = test: IL3 depletion competition assay for cytokine-independent survival of FL5-12 lymphocytes; type: cell-based, murine; settings: for IL-3 independence of FL5-12 cells: retest of individual miRNAs from secondary library screen
Description: An established in vitro assay of hematopoietic transformation (Plas, Talapatra, Edinger, Rathmell, & Thompson, 2001) was used to identify the key oncogenic activities within the 17˜92 cluster and its paralogues. All miRNAs representing families of unique seed sequences, specifically miR-17, miR-18a, miR-19b-1 (miR-19), miR-20a, miR-106a, miR-106b and miR-25 were tested (FIG. 1a). The assay is based on the IL3 dependence of FL5-12 lymphocytes, which undergo apoptosis when removed from IL3. In competition experiments, FL5-12 cells were partially transduced with GFP plus individual miRNAs or empty vector and these mixed populations were monitored by fluorescence-activated cell sorting (FACS) for changes in their relative proportions (FIG. 1b).
FL5-12 murine lymphocytes, IL3 depletion studies and viral transductions were as described (Mavrakis, et al., 2008) (Plas, Talapatra, Edinger, Rathmell, & Thompson, 2001). Cell cycle and cell death assays based on uptake of DNA staining dye (LDS751) using Cell cycle and Viacount assays from Guava Technologies were performed as reported (Mavrakis, et al., 2008). The retroviral vectors are based on murine stem cell virus (MSCV) and include the miRNA expression vectors encoding miRs 17, 18a, 19b-1 (miR-19), 106a, 106b, 25 (He, et al., 2005), the vectors encoding Notch-ICN (a gift from W. Pear) (Pear, et al., 1996) and Bcl2 (Wendel, et al., 2004), the individual shRNA vectors (FIG. 17) and the library vector (MRP) (FIGS. 18a and b). miRNA inhibitor oligonucleotides (antagomirs) MZIP19a-PA-1, MZIP19b-PA-1, and scrambled control (MZIP000-PA-1) were from System Biosciences.
The primary screen is based on c-MYC-induced apoptosis in MEFs (Evan, et al., 1992). MEFs were transduced with c-MYC and the miRNA library and cultured in puromycin to select for homogeneous c-MYC expression; apoptosis was triggered by diluting serum from 10% to 0.1%. Surviving cells remained adherent and were collected for DNA isolation, PCR amplification of the integrated miRNA library constructs, sub-cloning into pGEM-T vector, bacterial transformation, and sequence identification of ˜100 colonies. A secondary library was constructed by sub-cloning all miRNAs from the primary screen into an MSCV construct. The secondary screen is based on the IL-3 dependence of FL5-12 lymphocytes in vitro (Mavrakis, et al., 2010), (Plas, Talapatra, Edinger, Rathmell, & Thompson, 2001). FL5-12 cells were partially transduced with the pooled, GFP-tagged library and selected by IL-3 depletion. miRNAs were identified as above. Individual miRNAs were subsequently validated in the same FL5-12 assay and in vivo.

T-ALL1 cells [1] = test: Cell number during in vitro culture of T-ALL1 cells expressing antagomirs; type: cell-based, human; settings: T-ALL1, 6 d culture
Description: (§1) Given the pleiotropic and partially overlapping pattern of tumor suppressor gene regulation by multiple miRNAs, the effect of miRNA antagomirs on the growth rate and viability of two human T-ALL cell lines, T-ALL1 and Koptk1, were assessed. The human T-ALL1 cell line expresses high levels of miR-19a, miR-19b, miR-26a and miR-92 but only low levels of other miRNAs, e.g. miR-148a and the randomly chosen miR-182 (FIG. 27b inset). […] Results in the Koptk1 cell line were analogous to those in the T-ALL1 cell line (FIG. 28).
(§2) FL5-12 murine pro B-lymphocytes, cell cycle and apoptosis studies and viral transductions were as described (Mavrakis, et al., 2008), (Plas, Talapatra, Edinger, Rathmell, & Thompson, 2001). T-ALL cell lines, including Jurkat, were cultured in RPMI 1640 medium supplemented with 10-20% fetal calf serum, 100 U/ml penicillin G and 100 μg/ml streptomycin at 37° C. in a humidified atmosphere under 5% CO2. All vectors are based on murine stem cell virus (MSCV) and include the miRNA expression vector encoding all miRNAs described (He, et al., 2005), NOTCH1-ICN (Pear, et al., 1996) and the individual shRNA vectors (protein knockdown by shRNAs; FIG. 10). The miRNA pooled library (He, et al., 2005) is a generous gift from G. J. Hannon and has been expanded by PCR cloning to contain ˜300 miRNAs. The antagomirs MZIP19a-PA-1, MZIP19b-PA-1, MZIP26a-PA-1, MZIP92a-PA-1, MZIP148a-PA-1, MZIP182-PA1, MZIP223-PA-1 and scrambled control (MZIP000-PA-1) were from System Biosciences.

T-ALL1 cells [2] = test: Viability of T-ALL1 cells transduced with antagomirs; type: cell-based, human
Description: as §1, §2

PTEN and BCL2L11 = test: Quantitative RT-PCR of BCL2L11 and PTEN mRNA in T-ALL1 cells; type: cell-based, human
Description: (§3) Total RNA and miRNA-enriched RNA was extracted using the Allprep DNA/RNA/Protein and miRNeasy Mini kits. Pathological diagnosis was by expert hematopathologists at Weill Cornell Medical Center. cDNA synthesis, PCR and analysis by the ΔΔ Ct method were as described (Mavrakis, et al., 2008) and utilized Taqman Gene Expression Assays: Bcl2l11 (Mm00437796_m1), BCL2L11 (Hs00197982_m1), Pten (Mm01212532_m1), PTEN (Hs02621230_s1), Nf1 (Mm00812430_m1), NF1 (Hs01035104_m1), Ikzf1 (Mm01187878_m1), IKZF1 (Hs00172991_m1), Fbxw7 (Mm00504452_m1), FBXW7 (Hs00217794_m1), Phf6 (Mm00804415_m1), and Mouse GAPD (GAPDH) (4352932, Applied Biosystems). Expression was normalized to RNU6B (001093, Applied Biosystems).

[3] = tested on: PTEN, BCL2L11, PHF6, IKZF1, NF1, FBXW7; test: 3′UTR reporter, quantitative PCR and immunoblot assays of tumor suppressor genes in murine leukemias; type: cell-based; settings: murine T-ALLs expressing NOTCH1 and miRNA, mRNA, protein
Description: Immunoblots of whole cell lysates were performed as described (Wendel, et al., 2004). Antibodies were against Bim/Bcl2l11 (AAP-330, 1:1000, Assay Designs), Nf1 (sc67, 1:100, Santa Cruz), Cdc4/Fbxw7 (ab7405, 1:500, Abeam), Ikzf1 (sc-13039, 1:500, Santa Cruz), Phf6 (NB100-79861, 1:1000, Novus Biologicals), Pten (9559, 1:1000, Cell Signaling), tubulin (1:5000; Sigma, B-5-1-2) and actin (1:5000; Sigma, AC-15).
as §3
The mouse FBXW7 (bp 2793-4139; acc. no. NM_001177773), human NF1 (bp 10033-10666; acc. no NM_000267), human PHF6 (bp position 3271-4299; acc. no. NM_001015877) and Bim (bp. 3155-4773; acc. no. NM_009754) 3′UTR fragments were generated by PCR and cloned into the psi-CHECK-2 vector (Promega) with the exception of the IKZF1 3′UTR, which was purchased from Genecopoeia (cat no. HmiT000397b, by 2343-4471 of UTR). The assays were performed as described (Xiao, et al., 2008).

| Molecule | enrichment of cells co-expressing miR-19/GFP following IL3 depletion (FL5-12 lymphocytes; treated with 1 μM metformin to activate AMP-kinase) | growth rate (T-ALL1 cells [1]) | cell viability (T-ALL1 cells [2]) | expression of PTEN and BCL2L11 (PTEN and BCL2L11) | regulation of tumor suppressor genes [3] | IL-3 independence of FL5-12 cells (FL5-12 lymphocytes) |
| --- | --- | --- | --- | --- | --- | --- |
| CN(C)C(=N)N=C(N)N [metformin, reference compound] | Neither the other cDNAs nor metformin treatment abrogated miR-19's protective function |  |  |  |  |  |
| TATTGCAATTGTCCCGGACTATCTTCCTGTCAGACAGGCCGGGACAAGTGCAATATTTTT (listed as DNA, chemistry not fully specified) [antagomir against miR-92, antagomir to miR92a, miRZIP from System Biosciences] |  | reduce growth rate | significantly decrease cell viability | de-repress the tumor suppressor genes PTEN and BCL2L11 |  |  |
| TCAGTGCGCTACAGAACGTTATCTTCCTGTCAGACAAAGTTCTGTAGTGCACTGATTTTT (listed as DNA, chemistry not fully specified) [antagomir against miR-148a, antagomir to miR148, miRZIP from System Biosciences] |  | no significant (p>0.05) effect | no significant (p>0.05) effect | no significant (p>0.05) effect |  |  |
| TTCAAGTGATCCAGGATCGGATCTTCCTGTCAGAGCCTATCCTGGATTACTTGAATTTTT (listed as DNA, chemistry not fully specified) [antagomir against miR-26a, antagomir to miR26a, miRZIP from System Biosciences] |  | reduce growth rate | significantly decrease cell viability | de-repress the tumor suppressor genes PTEN and BCL2L11 |  |  |
| miR-20a: miRNA, UAAAGUGCUUAUAGUGCAGGUAG (SEQ ID NO: 3) (expressed or natural sequence; listed as Homo sapiens) |  |  |  |  | reduce levels of PTEN and PHF6 protein and mRNA in leukemic cells |  |
| miR-26: miRNA, UUCAAGUAAUCCAGGAUAGGCU (SEQ ID NO: 5) (expressed or natural sequence; listed as Homo sapiens) |  |  |  |  | reduce levels of PTEN and PHF6 protein and mRNA in leukemic cells | confirmed to confer IL-3 independence on FL5-12 cells |
| miR-92: miRNA, UAUUGCACUUGUCCCGGCCUGU (SEQ ID NO: 6) (expressed or natural sequence; listed as Homo sapiens) |  |  |  |  | affects IKZF1 and FBWX7 but does not target the murine NF1 |  |
| miR-223: miRNA, UGUCAGUUUGUCAAAUACCCCA (SEQ ID NO: 10) (expressed or natural sequence; listed as Homo sapiens) |  |  |  |  | strongly regulates FBXW7 reporter activity and protein levels | confirmed to confer IL-3 independence on FL5-12 cells |
| B1 |  | no significant (p>0.05) effect | no significant (p>0.05) effect | no significant (p>0.05) effect |  |  |
